# Data reported in patent US11299468B2, “Methods for producing 5-(halomethyl)furfural” (Origin Materials Operating, Inc., priority 2013, dated 2022).
# Assay: Partition coefficient screen of CMF between organic phase and acidic brine
# Format: physicochemical
# Procedure: The solvent system used in the methods and compositions described herein may also be selected based on the partition coefficient of the 5-(halomethyl)furfural in the reaction mixture. As used herein, “partition coefficient” refers to the ratio of molar concentration of 5-(halomethyl)furfural in the organic phase to 5-(halomethyl)furfural in the aqueous phase in the reaction mixture.
# […] […] A 1 mL sample was removed from each phase. The microwave vial was then resealed, and re-shaken.
# The 1 mL samples were added to volumetric flasks, where the acidic brine solution was diluted with THF and an amount of 37% HCl (˜3 mL) sufficient to eliminate the formation of a biphase with THF. The organic phase sample was diluted with toluene. The dilutions were then put into 1 dram vials and saved.
# Further sampling of each phase was repeated every […] for the duration of each 4-hour experiment resulting in a total of 6 samples per experiment. Throughout the course of the experiment the microwave vial was shaken every 20 minutes to promote contact between the two phases. The 6 samples of each experiment in this Example were then taken from the 1 dram vials and put into 1.5 ml vials and submitted to HPLC for CMF analysis.
# [1] = No. 1, organic Toluene, aqueous HCl (11.66N), 25 °C
# [2] = No. 2, organic Toluene, aqueous 1N H+ 11N Li+ 12N Cl−, 24.6 °C
# [3] = No. 3, organic Toluene, aqueous 6N H+ 6N Li+ 12N Cl−, 25 °C
# [4] = No. 4, organic Toluene, aqueous 2N H+ 10N Li+ 12N Cl−, 29.7 °C
# [5] = No. 5, organic Toluene, aqueous 1N H+ 11N Li+ 12N Cl−, 50 °C
# [6] = No. 6, organic Toluene, aqueous 6N H+ 6N Li+ 12N Cl−, 50 °C
# [7] = No. 7, organic Toluene, aqueous 2N H+ 10N Li+ 12N Cl−, 50 °C
# [8] = No. 8, organic Toluene, aqueous 2N H+ 4N Mg2+ 12N Cl−, 23.6 °C
# [9] = No. 9, organic Toluene, aqueous 2N H+ 4M sodium triflate 2M Cl−, 27.1 °C
# [10] = No. 10, organic Toluene, aqueous 2M H+ 10M Na+ 12M Cl−, 24.6 °C
# [11] = No. 11, organic Toluene, aqueous 2M H+ 1:1 12M LiCl:saturated NaCl, 24.1 °C
# [12] = No. 12, organic Toluene, aqueous 2M H+ saturated KCl, 24.2 °C
# [13] = No. 13, organic Toluene, aqueous 2M H+ 1:1 12M LiCl:saturated KCl, 24.8 °C
# [14] = No. 14, organic Toluene, aqueous 2M H+ 1:2 12M LiCl:saturated NaCl, 24.5 °C
# [15] = No. 15, organic Toluene, aqueous 2M H+ 1:2 12M LiCl:saturated KCl, 24.5 °C
# [16] = No. 16, organic Toluene, aqueous 2M H+ 1:1 12M LiCl:saturated MgCl2, 22 °C
# [17] = No. 17, organic Toluene, aqueous 2M H+ 10M Zn2+ 24M Cl−, 22 °C
# [18] = No. 18, organic Toluene, aqueous 2M H+ 4.13M Ca2+ 12.2M Cl−, 27 °C
# [19] = No. 19, organic Toluene, aqueous 2M H+ 6M Ca2+ 14M Cl−, 27 °C
# [20] = No. 20, organic Toluene, aqueous 2M H+ 4.13M Ca2+ 12.2M Cl−, 50 °C
# [21] = No. 21, organic Toluene, aqueous 2M H+ 6M Ca2+ 14M Cl−, 50 °C
# [22] = No. 22, organic Toluene, aqueous 2M H+ Satd. Rb, 24.5 °C
# [23] = No. 23, organic Toluene, aqueous 2M H+ Satd. Cs, 24.5 °C
# [24] = No. 24, organic Cepsa ® 550Q, aqueous 6N H+ 6N Li+ 12N Cl−, 23.3 °C
# [25] = No. 25, organic Cepsa ® 550Q, aqueous 1N H+ 11N Li+ 12N Cl−, 24.5 °C
# [26] = No. 26, organic Cepsa ® 900Q, aqueous 1N H+ 11N Li+ 12N Cl−, 22.8 °C
# [27] = No. 27, organic Cepsa ® 900Q, aqueous 6N H+ 6N Li+ 12N Cl−, 26.5 °C
# [28] = No. 28, organic Santovac ®-5, aqueous 1N H+ 11N Li+ 12N Cl−, 27.2 °C
# [29] = No. 29, organic Santovac ®-5, aqueous 6N H+ 6N Li+ 12N Cl−, 23.7 °C
# [30] = No. 30, organic Santovac ®-5, aqueous 2N H+ 10N Li+ 12N Cl−, 28.1 °C
# [31] = No. 31, organic Santovac ®-5, aqueous 1N H+ 11N Li+ 12N Cl−, 50 °C
# [32] = No. 32, organic Santovac ®-5, aqueous 6N H+ 6N Li+ 12N Cl−, 50 °C
# [33] = No. 33, organic Santovac ®-5, aqueous 2N H+ 10N Li+ 12N Cl−, 50 °C
# [34] = No. 34, organic Dichloroethane (4 mL), aqueous 37% HCl (4 mL), 28.5 °C
# [35] = No. 35, organic Dichloroethane (17.6 mL), aqueous 37% HCl (4 mL), 28.5 °C
compound,measurement,setting,value
"O=Cc1ccc(CCl)o1 [CMF, 5-(chloromethyl)furfural]",Normalized ratio (organic:aqueous),[1],3.0
same,log PC,[1],0.48
same,Normalized ratio (organic:aqueous),[2],144.0
same,log PC,[2],2.16
same,Normalized ratio (organic:aqueous),[3],17.4
same,log PC,[3],1.24
same,Normalized ratio (organic:aqueous),[4],72.9
same,log PC,[4],1.86
same,Normalized ratio (organic:aqueous),[5],110.0
same,log PC,[5],2.04
same,Normalized ratio (organic:aqueous),[6],18.9
same,log PC,[6],1.27
same,Normalized ratio (organic:aqueous),[7],79.6
same,log PC,[7],1.9
same,Normalized ratio (organic:aqueous),[8],61.3
same,log PC,[8],1.78
same,Normalized ratio (organic:aqueous),[9],8.3
same,log PC,[9],0.92
same,Normalized ratio (organic:aqueous),[10],66.1
same,log PC,[10],1.82
same,Normalized ratio (organic:aqueous),[11],90.1
same,log PC,[11],1.95
same,Normalized ratio (organic:aqueous),[12],222.0
same,log PC,[12],2.34
same,Normalized ratio (organic:aqueous),[13],71.1
same,log PC,[13],1.85
same,Normalized ratio (organic:aqueous),[14],100.0
same,log PC,[14],2
same,Normalized ratio (organic:aqueous),[15],119.0
same,log PC,[15],2.07
same,Normalized ratio (organic:aqueous),[16],68.0
same,log PC,[16],1.83
same,Normalized ratio (organic:aqueous),[17],0.6
same,log PC,[17],−0.23
same,Normalized ratio (organic:aqueous),[18],73.8
same,log PC,[18],1.87
same,Normalized ratio (organic:aqueous),[19],80.0
same,log PC,[19],1.9
same,Normalized ratio (organic:aqueous),[20],82.6
same,log PC,[20],1.91
same,Normalized ratio (organic:aqueous),[21],141.7
same,log PC,[21],2.15
same,Normalized ratio (organic:aqueous),[22],74.7
same,log PC,[22],1.87
same,Normalized ratio (organic:aqueous),[23],41.3
same,log PC,[23],1.61
same,Normalized ratio (organic:aqueous),[24],1.6
same,log PC,[24],1.61
same,Normalized ratio (organic:aqueous),[25],20.3
same,log PC,[25],1.31
same,Normalized ratio (organic:aqueous),[26],10.2
same,log PC,[26],1.01
same,Normalized ratio (organic:aqueous),[27],0.9
same,log PC,[27],−0.04
same,Normalized ratio (organic:aqueous),[28],60.7
same,log PC,[28],1.78
same,Normalized ratio (organic:aqueous),[29],6.6
same,log PC,[29],0.82
same,Normalized ratio (organic:aqueous),[30],43.7
same,log PC,[30],1.64
same,Normalized ratio (organic:aqueous),[31],65.6
same,log PC,[31],1.81
same,Normalized ratio (organic:aqueous),[32],10.3
same,log PC,[32],1.01
same,Normalized ratio (organic:aqueous),[33],55.9
same,log PC,[33],1.74
same,Normalized ratio (organic:aqueous),[34],10.9
same,log PC,[34],1.03
same,Normalized ratio (organic:aqueous),[35],11.6
same,log PC,[35],1.7
